Reference: the NIST ThermoML archive (doi:10.1016/j.tca.2013.06.017)
± gives the expanded uncertainty stated by the source.

How the values were obtained:
[1] = wn = mass fraction of the nth substance listed; details: 298.15 K, 101 kPa, Liquid; for viscosity: Capillary tube (Ostwald / Ubbelohde) method; for speed of sound: Sing-around technique in a fixed-path interferometer; for mass density: Vibrating tube method
[2] = refractive index (Na D-line) (dimensionless); wn = mass fraction of the nth substance listed; details: 298.15 K, 101 kPa, Liquid, Standard Abbe refractometry

O=[N+]([O-])[O-].O=[N+]([O-])[O-].[Ba+2] [barium dinitrate] + O
viscosity ([1]; w1 = 0.01): 0.904 ± 0.008 mPa·s | viscosity ([1]; w1 = 0.03): 0.91 ± 0.008 mPa·s | viscosity ([1]; w1 = 0.05): 0.916 ± 0.008 mPa·s | speed of sound ([1]; w1 = 0.01): 1512.7 ± 1.2 m/s | speed of sound ([1]; w1 = 0.03): 1516.4 ± 1.2 m/s | speed of sound ([1]; w1 = 0.05): 1519.3 ± 1.2 m/s | mass density ([1]; w1 = 0.01): 997.37 ± 0.05 kg/m3 | mass density ([1]; w1 = 0.03): 998.48 ± 0.05 kg/m3 | mass density ([1]; w1 = 0.05): 999.56 ± 0.05 kg/m3 | refractive index ([2]; w1 = 0.01): 1.3327 ± 0.0008 | refractive index ([2]; w1 = 0.03): 1.3334 ± 0.0008 | refractive index ([2]; w1 = 0.05): 1.3342 ± 0.0008
